{
  "source": "patent US10774084B2",
  "about": "“Adenine derivatives and their use as UV-photoprotective agents” (UNIVERZITA PALACKEHO V OLOMOUCI, priority 2015, dated 2020)",
  "system": "GSH depletion",
  "assay": "UVA-induced GSH depletion in NHDF (DTNB)",
  "type": "cell-based, human",
  "from_the_text": "Normal human dermal fibroblasts (NHDF) were used as an in vitro model. Cells were isolated from tissue specimens obtained from healthy patients undergoing plastic surgery at the Department of Plastic and Aesthetic Surgery (University Hospital Olomouc). The use of skin tissue was in accordance with the Ethics Committee of the University Hospital and Faculty of Medicine and Dentistry, Palacky University, Olomouc and all patients signed written informed consent. Fibroblasts were used between the 2nd and 4th passage. […]\nTest compounds included 6-(tetrahydrofuran-2-ylmethylamino)-9-(tetrahydrofuran-2-yl)purine and positive control (rosmarinic acid). […] Intensity of UVA radiation was evaluated before each irradiation by UVA-meter. […] After 1 hour (37° C., 5% CO2) cell damage was evaluated by analysis of reactive oxygen species (ROS) production. In parallel, intracellular levels of glutathion (GSH) were measured 4 hours (37° C., 5% CO2) after UVA application.\nGSH levels in NHDF were evaluated by reaction with 5,5′-Dithiobis(2-nitrobenzoic acid) (DTNB). […] Absorbance was measured at 412 nm. Protein content was analyzed spectrophotometrically by Lowry's method at 680 nm.\nActivity of test compounds (not irradiated) in analyzed parameters were evaluated by comparison of experimental data according to the following equation: […]",
  "data": [
    {"compound": "c1nc(NCC2CCCO2)c2ncn(C3CCCO3)c2n1", "note": "(centres unmarked) [Compound 1, 6-(tetrahydrofuran-2-ylmethylamino)-9-(tetrahydrofuran-2-yl)purine]", "values": [
      {"measurement": "protection against GSH depletion in comparison with rosmarinic acid (in words)", "setting": "UVA, NHDF", "value": "less effective"},
      {"measurement": "effect on GSH level in non-irradiated cells (in words)", "setting": "non-irradiated NHDF, 2.5-20 μmol/l", "value": "did not showed negative effect"}
    ]}
  ]
}
